Measurements published in patent US6492416B1, “4,5-diaryl-3(2H)-furanone derivatives as cyclooxygenase-2 inhibitors” (Pacific Corporation, priority 1999, dated 2002).
In brackets after ≈: the same amount, converted by molar mass.

Assays:
COX-1 = target: T1, COX-1 (Mus musculus, UniProt P22437); assay: Evaluation of COX-1 activity: PGE2 formation in mouse peritoneal macrophages without aspirin and LPS treatment; assay type: cell-based; conditions: for IC50: read-out: IC50, μg/ml COX-1 (converted)
T1 sequence (P22437 27-602): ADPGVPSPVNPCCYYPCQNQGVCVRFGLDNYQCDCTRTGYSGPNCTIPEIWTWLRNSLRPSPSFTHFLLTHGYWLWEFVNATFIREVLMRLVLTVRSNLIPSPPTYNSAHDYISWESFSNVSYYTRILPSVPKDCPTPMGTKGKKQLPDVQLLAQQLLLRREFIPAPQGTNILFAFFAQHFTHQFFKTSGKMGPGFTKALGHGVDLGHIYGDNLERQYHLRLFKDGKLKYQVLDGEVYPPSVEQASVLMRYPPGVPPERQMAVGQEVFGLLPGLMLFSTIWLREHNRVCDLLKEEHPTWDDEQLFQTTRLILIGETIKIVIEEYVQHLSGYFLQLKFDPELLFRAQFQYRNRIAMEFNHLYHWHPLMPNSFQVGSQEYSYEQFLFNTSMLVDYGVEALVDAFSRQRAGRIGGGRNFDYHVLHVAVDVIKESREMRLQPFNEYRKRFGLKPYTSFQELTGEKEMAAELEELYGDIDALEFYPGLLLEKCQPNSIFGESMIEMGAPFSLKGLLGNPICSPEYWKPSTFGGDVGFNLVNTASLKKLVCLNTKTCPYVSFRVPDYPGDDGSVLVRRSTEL
Protocol: (§1) Evaluation of in vitro COX-2 and COX-1 Activity [J. Pharmacol. Exp. Ther. 166, 96 (1969)]
(§2) The abdominal skin of a C57BL/6 mouse was sanitized with 70% aqueous ethanol, and was removed without damaging the peritoneum. 5 ml of cold phosphate buffer solution (PBS) was then injected into the abdominal cavity. After a minute, the peritoneal fluid containing the macrophages was collected using a syringe and a needle. The collected fluid was centrifuged for 5 min at 1500 rpm to afford pellets of cells. The pellets were then dispersed in the RPMI-1640 culture medium containing 100 units/ml penicillin and 100 μg/ml streptomycin.
(§3) The pellets dispersed as above were treated with 500 μM aspirin in order to knock out the activity of the COX-1 enzymes in the cells. The suspension was then diluted with the RPMI-1640 medium to contain 1×10^6 cells/ml. 100 μl of the suspension was added to each well of a 96-well ELISA plate. Then the plate was incubated for 2 hrs at 37° C. under 5% CO2 in order to fix the macrophages onto the plate. The cells, which were not fixed onto the plate were removed by washing with PBS two times. The purity of macrophages obtained thereby was confirmed by differential counting. The RPMI-1640 medium containing 3% fetal bovine serum albumin was added to each well of the plate, which was followed by stimulation with 10 μg/ml lipopolysaccharide (LPS). Usually 5×10^5 cells/ml were present by this preparation. The LPS-treated suspensions were incubated for 16 hours at 37° C. under 5% CO2 to induce COX-2. Then the culture medium was removed and the macrophages were washed two times with PBS. Then 130 μl RPMI-1640 culture medium was added to each well and the macrophage solutions were incubated at 37° C. for 10 minutes, which was followed by the treatment with 10 μM arachidonic acid and an appropriate amount of compounds of this invention. The plate was incubated for another 10 minutes. The upper solution was collected using a micropipette and was subjected to determination of PGE2 amount in the solution. The amount of PGE2 present in the collected solution was determined either by a known radio-immuno assay or by a known enzyme-immunoassay [Methods in Enzymol. 86, 258 (1982); Methods in Enzymol. 187, 24 (1990)]. The extent of COX-2 inhibition by a compound of the present invention was calculated by assuming, that the amount of PGE2 formed with the treatment of 10 μg/ml arachidonic acid was used is the maximum possible amount of PGE2, and that the amount of PGE2 formed without the treatment of arachidonic acid is the minimum possible amount of PGE2.
In the evaluation of COX-1 inhibitory activity by a compound of the present invention, the same procedures employed for evaluation of COX-2 activity were employed, except omitting the following two steps: 1) the treatment with aspirin for knockout of COX-1 activity and 2) treatment with LPS for induction of COX-2.
(§4) In order to determine IC50 for a compound of this invention, enzymatic activities were measured at multiple concentrations of compounds of this invention around IC50 of the compound. Usually enzymatic activities at 4˜5 concentrations were measured to calculate out IC50 for a compound of this invention.

COX-2 = target: T2, COX-2 (Mus musculus, UniProt Q05769); assay: Evaluation of COX-2 activity: PGE2 formation in aspirin-treated, LPS-stimulated mouse peritoneal macrophages; assay type: cell-based; conditions: for IC50: read-out: IC50, μg/ml COX-2 (converted)
T2 sequence (Q05769 18-604): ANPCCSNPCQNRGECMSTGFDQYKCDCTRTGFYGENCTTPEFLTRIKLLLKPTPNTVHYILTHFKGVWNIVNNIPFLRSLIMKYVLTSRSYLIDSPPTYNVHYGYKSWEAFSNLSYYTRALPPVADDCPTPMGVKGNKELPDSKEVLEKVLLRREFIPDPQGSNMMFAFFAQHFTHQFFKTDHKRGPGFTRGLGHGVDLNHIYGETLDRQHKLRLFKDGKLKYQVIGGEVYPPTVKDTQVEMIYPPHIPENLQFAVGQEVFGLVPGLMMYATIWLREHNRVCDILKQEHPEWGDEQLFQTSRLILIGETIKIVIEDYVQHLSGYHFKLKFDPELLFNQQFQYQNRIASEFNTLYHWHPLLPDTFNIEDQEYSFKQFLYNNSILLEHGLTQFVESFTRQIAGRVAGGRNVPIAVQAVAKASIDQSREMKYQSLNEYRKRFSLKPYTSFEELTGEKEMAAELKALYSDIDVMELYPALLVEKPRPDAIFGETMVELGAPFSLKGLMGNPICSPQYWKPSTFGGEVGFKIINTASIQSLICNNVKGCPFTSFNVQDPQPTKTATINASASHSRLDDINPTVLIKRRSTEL
Protocol: as §1, §2
as §3, with “The purity of macrophages obtained thereby was confirmed by differential counting.” left out, “Usually 5×10^5 cells/ml were present by this preparation.” left out
as §4

IC50, μg/ml COX-1 (COX-1) | IC50, μg/ml COX-2 (COX-2) | IC50 (COX-1) | IC50 (COX-2) | melting point | Compound
200 µg/mL (≈ 437 µM) | 0.08 µg/mL (≈ 0.175 µM) | – | – | – | CC1(C)OC(c2ccc(S(C)(=O)=O)c(Br)c2)=C(c2cc(F)ccc2F)C1=O [Example 344]
– | – | 7.53 µM | 0.0753 µM | – | CCCc1ccc(C2=C(c3ccc(S(C)(=O)=O)cc3)OC(C)(CC)C2=O)cc1 (centres unmarked) [Example 202]
30 µg/mL (≈ 76.3 µM) | 0.08 µg/mL (≈ 0.203 µM) | – | – | – | Cc1cc(C2=C(c3cc(F)cc(F)c3)C(=O)C(C)(C)O2)ccc1S(N)(=O)=O [Example 384, 5-{4-(Aminosulfonyl)-3-methylphenyl}-4-(3-difluorophenyl)-2,2-dimethyl-3(2H)-furanone]
– | – | 77.6 µM | 0.776 µM | – | CCC1(C)OC(c2ccc(S(C)(=O)=O)cc2)=C(c2cccc(OC)c2)C1=O (centres unmarked) [Example 200]
3 µg/mL (≈ 8.61 µM) | 0.03 µg/mL (≈ 0.0861 µM) | – | – | – | CC1(C)OC(c2ccc(S(C)(=O)=O)cc2)=C(c2cccs2)C1=O [Example 113]
20 µg/mL (≈ 47.8 µM) | 0.03 µg/mL (≈ 0.0717 µM) | – | – | – | CCC1(CC)OC(c2ccc(S(C)(=O)=O)cc2)=C(c2ccc(OC)c(F)c2)C1=O [Example 50, 2,2-Diethyl-4-(3-fluoro-4-methoxyphenyl)-5-{4-(methylsulfonyl)phenyl}-3(2H)-furanone]
20 µg/mL (≈ 55.2 µM) | 0.3 µg/mL (≈ 0.828 µM) | – | – | – | C[S+]([O-])c1ccc(C2=C(c3cccc(F)c3)C(=O)C(C)(C)O2)cc1F (centres unmarked) [Example 290, 2,2-Dimethyl-5-{3-fluoro-4-(methylsulfinyl)phenyl)-4-(3-fluorophenyl)-3(2H)-furanone]
600 µg/mL (≈ 1480 µM) | 0.3 µg/mL (≈ 0.739 µM) | – | – | – | CCNS(=O)(=O)c1ccc(C2=C(c3ccccc3)C(=O)C(C)(C)O2)cc1Cl [Example 373, 5-{3-Chloro-4-(N-ethylaminosulfonyl)phenyl}-2,2-dimethyl-4-phenyl-3(2H)-furanone]
– | 0.05 µg/mL (≈ 0.122 µM) | – | – | – | CC(C)c1ccc(C2=C(c3ccc(S(C)(=O)=O)cc3)OC3(CCCC3)C2=O)cc1 [Example 54, 3-(4-Isopropylphenyl)-2-{4-(methylsulfonyl)phenyl}-1-oxa-spiro[4,4]non-2-en-4-one]
3 µg/mL (≈ 7.97 µM) | 0.03 µg/mL (≈ 0.0797 µM) | – | – | – | CCC1(C)OC(c2ccc(S(C)(=O)=O)cc2)=C(c2ccc(C)s2)C1=O (centres unmarked) [Example 225]
30 µg/mL (≈ 72.7 µM) | 0.3 µg/mL (≈ 0.727 µM) | – | – | – | CCC1(CC)OC(c2ccc(S(C)(=O)=O)cc2)=C(c2ccc(C(C)=O)cc2)C1=O [Example 49, 4-(4-Acetylphenyl)-2,2-diethyl-5-{4-(methylsulfonyl)phenyl}-3(2H)-furanone]
– | – | 50.2 µM | 0.251 µM | – | CCC1(C)OC(c2ccc(S(C)(=O)=O)cc2)=C(c2cccc(C(C)C)c2)C1=O (centres unmarked) [Example 201]
300 µg/mL (≈ 745 µM) | 1 µg/mL (≈ 2.48 µM) | – | – | – | CS(=O)(=O)c1ccc(C2=C(c3cccc(F)c3)C(=O)C3(CCOCC3)O2)cc1 [Example 261, 3-(3-Fluorophenyl)-2-{4-(methylsulfonyl)phenyl}-1,8-dioxa-spiro[4,5]dec-2-en-4-one]
6.97 µg/mL (≈ 17.3 µM) | 0.034 µg/mL (≈ 0.0843 µM) | – | – | – | COc1ccc(C2=C(c3ccc(S(N)(=O)=O)cc3)OC(C)(C)C2=O)cc1OC [Example 24, 5-{4-(Aminosulfonyl)phenyl}-4-{3,4-(dimethoxy)phenyl}-2,2-dimethyl 3(2H)-furanone]
30 µg/mL (≈ 80.5 µM) | 0.1 µg/mL (≈ 0.268 µM) | – | – | – | COc1cccc(C2=C(c3ccc(S(C)(=O)=O)cc3)OC(C)(C)C2=O)c1 [Example 95]
30 µg/mL (≈ 86.1 µM) | 0.2 µg/mL (≈ 0.574 µM) | – | – | – | CC1(C)OC(c2ccc(S(C)(=O)=O)cc2)=C(c2ccsc2)C1=O [Example 17, 2,2-Dimethyl-5-{4-(methylsulfonyl)phenyl}4-(3-thienyl)-3(2H)-furanone]
50 µg/mL (≈ 129 µM) | 0.3 µg/mL (≈ 0.776 µM) | – | – | – | CC(O)c1ccc(C2=C(c3ccc(S(C)(=O)=O)cc3)OC(C)(C)C2=O)cc1 (centres unmarked) [Example 111, 2,2-Dimethyl-4-{4-(1-hydroxyethyl)phenyl}-5-{4-(methylsulfonyl)phenyl}-3(2H)-furanone]
30 µg/mL (≈ 90.3 µM) | 0.2 µg/mL (≈ 0.602 µM) | – | – | – | CC1(C)OC(c2ccc(S(C)(=O)=O)cc2)=C(c2ccco2)C1=O [Example 18, 2,2-Dimethyl-4-(2-furanyl)-5-{4-(methylsulfonyl)phenyl}-3(2H)-furanone]
30 µg/mL (≈ 65.8 µM) | 0.02 µg/mL (≈ 0.0439 µM) | – | – | – | CC1(C)OC(c2ccc(S(C)(=O)=O)c(Br)c2)=C(c2cccc(Cl)c2)C1=O [Example 342]
50 µg/mL (≈ 133 µM) | – | – | – | 100 to 103 °C | CC1(C)OC(c2ccc(S(C)(=O)=O)cc2)=C(c2ccccc2Cl)C1=O [Example 69]
5 µg/mL (≈ 13.2 µM) | – | – | – | 162 °C | CC1(C)OC(c2ccc(S(C)(=O)=O)cc2)=C(c2ccc(F)c(F)c2)C1=O [Example 80]
